How the values were obtained:
Ba/F3 ERBB2 YVMA = Ba/F3 ERBB2 YVMA (Homo sapiens, UniProt P04626, DUP772-775, cells depend on it); assay: Cell viability assay (CellTiter Glo) in Ba/F3 cells engineered to express ERBB2 YVMA; type: cell-based, mouse; settings: Ba/F3 cells expressing human ERBB2 YVMA mutant, 72 hours, % viability, read-out: Ba/F3 ERBB2 YVMA IC50
Procedure, shortened: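 IL-3-independent mouse Ba/F3 line stably transduced with human ERBB2 YVMA, seeded at 3000 cells/well, exposed to serially diluted compound (≤0.1% DMSO) for 72 h at 37° C. ATP read by CellTiter Glo luminescence, normalised to DMSO and media-only controls; sigmoidal nonlinear regression fit.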

[1] = target: T1, phosphorylated EGFR (pEGFR) (Homo sapiens, UniProt P00533); assay: Detection of phosphorylated EGFR (pEGFR) in EGF-stimulated A431 cells (AlphaLISA); type: cell-based; settings: A431 cells (10% FBS), 4 hours incubation, EGF 30 ng/mL for 10 minutes
T1 construct: performed to measure phosphorylated EGFR levels using A431 cells; endogenous in cells; host or cells: A431
Procedure, shortened: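 Cells in 10% FBS treated with compound 4 h at 37° C., then stimulated 10 min with 30 ng/mL EGF, lysed, and pEGFR measured by AlphaLISA. Inhibition normalized to DMSO and staurosporine controls; IC50 from four-parameter logistic fit.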

[2] = target: T2, phosphorylated ERBB2 (pERBB2) (Homo sapiens, UniProt P04626); assay: Detection of phosphorylated ERBB2 (pERBB2) by ELISA in BT-474 cells; type: cell-based; settings: four hour incubation with compound
T2 construct: endogenous in cells; host or cells: BT-474
Procedure, shortened: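 BT-474 cells treated 4 h at 37 °C, 5% CO2 with four-fold dilutions (10 μM to 0.01 nM final). Lysates analysed by ELISA for pERBB2, TMB read at OD 450 nm. % relative activity normalised to no-cell (low) and 0.1% DMSO-treated (high) controls.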

T1 sequence (P00533 25-1210): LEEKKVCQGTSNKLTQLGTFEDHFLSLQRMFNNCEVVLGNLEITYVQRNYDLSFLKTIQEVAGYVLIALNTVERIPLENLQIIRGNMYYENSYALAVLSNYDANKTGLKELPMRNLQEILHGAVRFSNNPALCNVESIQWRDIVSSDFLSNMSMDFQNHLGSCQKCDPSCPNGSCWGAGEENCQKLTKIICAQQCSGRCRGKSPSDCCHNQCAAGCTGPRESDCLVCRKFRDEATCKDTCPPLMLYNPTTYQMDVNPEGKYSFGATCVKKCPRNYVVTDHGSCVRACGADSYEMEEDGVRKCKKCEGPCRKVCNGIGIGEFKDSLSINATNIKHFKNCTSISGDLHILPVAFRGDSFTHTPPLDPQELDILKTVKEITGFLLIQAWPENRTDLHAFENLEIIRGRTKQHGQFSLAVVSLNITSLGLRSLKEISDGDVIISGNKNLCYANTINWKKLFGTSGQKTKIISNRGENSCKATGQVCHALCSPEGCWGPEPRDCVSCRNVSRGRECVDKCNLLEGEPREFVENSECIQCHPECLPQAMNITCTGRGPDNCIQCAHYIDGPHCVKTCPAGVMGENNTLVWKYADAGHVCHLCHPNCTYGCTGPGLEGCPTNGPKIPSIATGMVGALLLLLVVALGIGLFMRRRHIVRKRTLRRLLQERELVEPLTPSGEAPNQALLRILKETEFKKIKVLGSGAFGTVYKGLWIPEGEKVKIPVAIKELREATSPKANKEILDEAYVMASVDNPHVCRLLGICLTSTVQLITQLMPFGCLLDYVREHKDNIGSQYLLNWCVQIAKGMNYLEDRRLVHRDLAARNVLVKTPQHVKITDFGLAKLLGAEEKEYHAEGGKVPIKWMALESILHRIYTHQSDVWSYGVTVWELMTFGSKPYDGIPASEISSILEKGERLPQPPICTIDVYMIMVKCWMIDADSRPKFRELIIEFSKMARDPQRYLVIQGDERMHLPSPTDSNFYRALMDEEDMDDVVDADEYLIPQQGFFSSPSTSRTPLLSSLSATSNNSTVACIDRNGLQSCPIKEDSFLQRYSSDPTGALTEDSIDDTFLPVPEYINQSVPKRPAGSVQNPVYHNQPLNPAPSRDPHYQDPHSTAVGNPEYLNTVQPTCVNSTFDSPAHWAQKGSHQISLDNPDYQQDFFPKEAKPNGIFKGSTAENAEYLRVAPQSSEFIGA
Sequence of Ba/F3 ERBB2 YVMA (P04626 with tags, fused parts or gaps DUP772-775): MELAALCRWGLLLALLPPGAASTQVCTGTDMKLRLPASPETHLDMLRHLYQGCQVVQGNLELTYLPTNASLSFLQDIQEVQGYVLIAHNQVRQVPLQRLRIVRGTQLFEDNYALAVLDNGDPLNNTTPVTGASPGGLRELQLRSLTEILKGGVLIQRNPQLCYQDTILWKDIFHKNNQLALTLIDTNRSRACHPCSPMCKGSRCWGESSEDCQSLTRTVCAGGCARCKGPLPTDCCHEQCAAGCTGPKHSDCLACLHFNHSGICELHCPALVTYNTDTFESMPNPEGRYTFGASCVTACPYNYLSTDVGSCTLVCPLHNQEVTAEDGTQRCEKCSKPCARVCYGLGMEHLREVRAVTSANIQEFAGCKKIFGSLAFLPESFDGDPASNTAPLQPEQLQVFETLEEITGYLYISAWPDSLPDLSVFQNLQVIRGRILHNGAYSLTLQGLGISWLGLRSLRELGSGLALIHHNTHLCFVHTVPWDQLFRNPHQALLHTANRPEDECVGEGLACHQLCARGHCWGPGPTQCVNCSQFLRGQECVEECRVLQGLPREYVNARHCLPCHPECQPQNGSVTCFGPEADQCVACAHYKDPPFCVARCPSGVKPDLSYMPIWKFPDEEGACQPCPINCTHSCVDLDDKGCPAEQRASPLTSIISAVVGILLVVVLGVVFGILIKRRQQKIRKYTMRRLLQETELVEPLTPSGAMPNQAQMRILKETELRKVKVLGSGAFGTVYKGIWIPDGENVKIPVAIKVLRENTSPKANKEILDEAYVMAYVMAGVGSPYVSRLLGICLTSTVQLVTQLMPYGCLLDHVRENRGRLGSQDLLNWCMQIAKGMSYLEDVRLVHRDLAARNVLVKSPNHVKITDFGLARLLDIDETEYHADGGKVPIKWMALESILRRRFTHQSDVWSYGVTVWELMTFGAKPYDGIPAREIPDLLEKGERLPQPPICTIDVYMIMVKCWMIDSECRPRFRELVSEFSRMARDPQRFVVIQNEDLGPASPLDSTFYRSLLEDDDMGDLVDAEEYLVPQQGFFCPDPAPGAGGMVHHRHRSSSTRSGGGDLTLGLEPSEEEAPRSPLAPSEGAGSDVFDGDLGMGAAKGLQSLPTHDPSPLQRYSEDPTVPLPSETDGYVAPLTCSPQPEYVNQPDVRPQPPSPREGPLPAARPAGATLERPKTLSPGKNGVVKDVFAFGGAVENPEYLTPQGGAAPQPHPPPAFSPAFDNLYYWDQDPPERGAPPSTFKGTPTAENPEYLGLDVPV
T2 sequence (P04626 23-1255): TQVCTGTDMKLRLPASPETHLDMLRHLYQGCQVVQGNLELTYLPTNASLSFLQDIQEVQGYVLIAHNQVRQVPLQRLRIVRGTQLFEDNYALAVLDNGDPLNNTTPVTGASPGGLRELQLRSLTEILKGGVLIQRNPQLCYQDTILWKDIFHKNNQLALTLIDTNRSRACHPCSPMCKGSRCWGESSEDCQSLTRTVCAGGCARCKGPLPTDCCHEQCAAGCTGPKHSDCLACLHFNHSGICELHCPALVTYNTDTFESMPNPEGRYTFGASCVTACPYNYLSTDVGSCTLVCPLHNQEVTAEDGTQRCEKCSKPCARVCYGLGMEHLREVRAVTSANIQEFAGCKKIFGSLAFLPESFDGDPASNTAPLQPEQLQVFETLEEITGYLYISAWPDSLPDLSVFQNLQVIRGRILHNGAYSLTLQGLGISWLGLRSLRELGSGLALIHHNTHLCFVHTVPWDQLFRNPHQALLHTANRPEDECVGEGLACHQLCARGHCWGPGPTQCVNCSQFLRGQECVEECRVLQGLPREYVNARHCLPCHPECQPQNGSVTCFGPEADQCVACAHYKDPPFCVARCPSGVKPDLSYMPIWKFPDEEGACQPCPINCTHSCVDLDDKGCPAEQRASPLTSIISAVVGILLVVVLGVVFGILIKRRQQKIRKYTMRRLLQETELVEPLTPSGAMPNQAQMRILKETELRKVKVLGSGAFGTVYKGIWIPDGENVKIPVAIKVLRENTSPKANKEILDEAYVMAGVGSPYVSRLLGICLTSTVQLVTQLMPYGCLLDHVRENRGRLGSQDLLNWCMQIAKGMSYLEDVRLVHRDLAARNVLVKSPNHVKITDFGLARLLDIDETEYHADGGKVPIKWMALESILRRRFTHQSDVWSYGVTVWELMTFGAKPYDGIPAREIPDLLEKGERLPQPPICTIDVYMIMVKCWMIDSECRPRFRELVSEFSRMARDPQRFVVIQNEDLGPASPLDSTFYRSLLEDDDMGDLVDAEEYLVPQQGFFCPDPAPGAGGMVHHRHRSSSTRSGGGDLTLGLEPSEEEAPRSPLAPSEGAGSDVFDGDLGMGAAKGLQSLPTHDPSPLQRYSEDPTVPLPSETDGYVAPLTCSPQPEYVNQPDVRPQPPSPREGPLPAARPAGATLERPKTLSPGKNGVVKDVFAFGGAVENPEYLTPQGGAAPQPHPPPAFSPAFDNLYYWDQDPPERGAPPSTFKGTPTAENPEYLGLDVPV

IC50 [1]	IC50 [2]	Compound	GI50 (Ba/F3 ERBB2 YVMA)
2580 nM	138 nM	C=CC(=O)N1CCN(c2ccc3ncnc(Nc4ccc(Oc5ccc(CC)nc5)c(C)c4)c3n2)CC1 [Compound 124, 1-(4-(4-((4-((6-ethylpyridin-3-yl)oxy)-3-methylphenyl)amino)pyrido[3,2-d]pyrimidin-6-yl)piperazin-1-yl)prop-2-en-1-one]	35.9 nM
> 10000 nM	31.9 nM	C=CC(=O)N1CCN(c2ncc3ncnc(Nc4ccc(Cc5ccn6ncnc6c5)c(C)c4)c3n2)[C@@H](C)C1 [Compound 113, 1-[(3S)-3-methyl-4-{8-[(3-methyl-4-{[1,2,4]triazolo[1,5-a]pyridin-7-ylmethyl}phenyl)amino]pyrimido[5,4-d][1,3]diazin-2-yl}piperazin-1-yl]prop-2-en-1-one]	8.87 nM
1800 nM	21.2 nM	C=CC(=O)N1CC2CCC(C1)N2c1ccc2ncnc(Nc3ccc(Cc4ccn5ncnc5c4)c(C)c3)c2n1 [Compound 95, 1-(8-{4-[(3-methyl-4-{[1,2,4]triazolo[1,5-a]pyridin-7-ylmethyl}phenyl)amino]pyrido[3,2-d]pyrimidin-6-yl}-3,8-diazabicyclo[3.2.1]octan-3-yl)prop-2-en-1-one]	6.96 nM
1030 nM	37.2 nM	C=CC(=O)N1C2CCC1CN(c1ccc3ncnc(Nc4ccc(Oc5ccc6c(c5)ncn6C)c(C)c4)c3n1)C2 [Compound 74, 1-(3-(4-((3-methyl-4-((1-methyl-1H-benzo[d]imidazol-5-yl)oxy)phenyl)amino)pyrido[3,2-d]pyrimidin-6-yl)-3,8-diazabicyclo[3.2.1]octan-8-yl)prop-2-en-1-one]	27.9 nM
281 nM	32.5 nM	C=CC(=O)N1CC2CCC(C1)N2c1ccc2ncnc(Nc3ccc(Oc4ccc5c(c4)ncn5C)c(C)c3)c2n1 [Compound 73, 1-{8-[4-({3-methyl-4-[(1-methyl-1,3-benzodiazol-5-yl)oxy]phenyl}amino)pyrido[3,2-d]pyrimidin-6-yl]-3,8-diazabicyclo[3.2.1]octan-3-yl}prop-2-en-1-one]	29 nM
> 10000 nM	45.9 nM	C=CC(=O)N1CCN(c2ccc3ncnc(Nc4ccc(Oc5ccn6ncnc6c5)c(C)c4)c3c2F)C(C)C1 (stereo not drawn) [Compound 114, 1-(4-{5-fluoro-4-[(3-methyl-4-{[1,2,4]triazolo[1,5-a]pyridin-7-yloxy}phenyl)amino]quinazolin-6-yl}-3-methylpiperazin-1-yl)prop-2-en-1-one]	53.9 nM
2000 nM	24.5 nM	C=CC(=O)N1CCN(c2ncc3ncnc(Nc4ccc(Oc5ccc6c(c5)ncn6C)c(C)c4)c3n2)[C@@H](C)C1 [Compound 76, 1-[(3S)-3-methyl-4-[8-({3-methyl-4-[(1-methyl-1,3-benzodiazol-5-yl)oxy]phenyl}amino)-[1,3]diazino[5,4-d]pyrimidin-2-yl]piperazin-1-yl]prop-2-en-1-one]	10 nM

Second part, the compound before the results:

Compound	IC50 [1]	IC50 [2]	GI50 (Ba/F3 ERBB2 YVMA)
C=CC(=O)N1CCN(c2ccc3ncnc(Nc4ccc(Cc5ccn6ncnc6c5)c(C)c4)c3n2)[C@@H](C)C1 [Compound 66, (S)-1-(4-(4-((4-([1,2,4]triazolo[1,5-a]pyridin-7-ylmethyl)-3-methylphenyl)amino)pyrido[3,2-d]pyrimidin-6-yl)-3-methylpiperazin-1-yl)prop-2-en-1-one]	9020 nM	18 nM	12.5 nM
C=CC(=O)N1CCN(c2cc3c(Nc4ccc(OC5CCN(C(=O)C6CCCC6)CC5)c(C)c4)ncnc3cn2)CC1 [Compound 2, 1-(4-(4-((4-((1-(cyclopentanecarbonyl)piperidin-4-yl)oxy)-3-methylphenyl)amino)pyrido[3,4-d]pyrimidin-6-yl)piperazin-1-yl)prop-2-en-1-one]	2690 nM	48.2 nM	20.3 nM
C=CC(=O)N1CCN(c2ccc3ncnc(Nc4ccc(Oc5ccn6ncnc6c5)c(C)c4)c3c2F)C[C@H]1C [Compound 63, (R)-1-(4-(4-((4-([1,2,4]triazolo[1,5-a]pyridin-7-yloxy)-3-methylphenyl)amino)-5-fluoroquinazolin-6-yl)-2-methylpiperazin-1-yl)prop-2-en-1-one]	5500 nM	21.4 nM	10.5 nM
C=CC(=O)N1CCC[C@H](Nc2ccc3ncnc(Nc4ccc(Oc5ccn6ncnc6c5)c(C)c4)c3n2)C1 [Compound 41, (S)-1-(3-((4-((4-([1,2,4]triazolo[1,5-a]pyridin-7-yloxy)-3-methylphenyl)amino)pyrido[3,2-d]pyrimidin-6-yl)amino)piperidin-1-yl)prop-2-en-1-one]	1590 nM	18.1 nM	19.7 nM
CC#CC(=O)N1CC2CC1CN2c1ccc2ncnc(Nc3ccc(Oc4ccn5ncnc5c4)c(C)c3)c2n1 (stereo not drawn) [Compound 30, 1-(5-(4-((4-([1,2,4]triazolo[1,5-a]pyridin-7-yloxy)-3-methylphenyl)amino)pyrido[3,2-d]pyrimidin-6-yl)-2,5-diazabicyclo[2.2.1]heptan-2-yl)but-2-yn-1-one]	2430 nM	61.4 nM	21.2 nM
C=CC(=O)N1[C@H](C)CN(c2ccc3ncnc(Nc4ccc(Oc5ccn6ncnc6c5)c(C)c4)c3n2)C[C@@H]1C [Compound 60, 1-(cis-4-(4-((4-([1,2,4]triazolo[1,5-a]pyridin-7-yloxy)-3-methylphenyl)amino)pyrido[3,2-d]pyrimidin-6-yl)-2,6-dimethylpiperazin-1-yl)prop-2-en-1-one]	3780 nM	23.7 nM	14.3 nM
C=CC(=O)N1CCN(c2ccc3ncnc(Nc4ccc(Oc5ccn6ncnc6c5)c(C)c4)c3n2)C[C@H]1C [Compound 10, 1-[(2R)-2-methyl-4-{4-[(3-methyl-4-{[1,2,4]triazolo[1,5-a]pyridin-7-yloxy}phenyl)amino]pyrido[3,2-d]pyrimidin-6-yl}piperazin-1-yl]prop-2-en-1-one]	294 nM	8.74 nM	4.61 nM
C=CC(=O)N1CCC(Nc2ccc3ncnc(Nc4ccc(Oc5ccn6ncnc6c5)c(C)c4)c3n2)CC1 [Compound 40, 1-[4-({4-[(3-methyl-4-{[1,2,4]triazolo[1,5-a]pyridin-7-yloxy}phenyl)amino]pyrido[3,2-d]pyrimidin-6-yl}amino)piperidin-1-yl]prop-2-en-1-one]	22 nM	6.1 nM	5.81 nM
CC#CC(=O)N1CCN(c2ncc3ncnc(Nc4ccc(Oc5ccc6c(c5)ncn6C)c(C)c4)c3n2)C[C@H]1C [Compound 72, (R)-1-(2-methyl-4-(8-((3-methyl-4-((1-methyl-1H-benzo[d]imidazol-5-yl)oxy)phenyl)amino)pyrimido[5,4-d]pyrimidin-2-yl)piperazin-1-yl) but-2-yn-1-one]	2680 nM	67.9 nM	10.1 nM
C=CC(=O)N1CC[C@H](Nc2ccc3ncnc(Nc4ccc(Oc5ccn6ncnc6c5)c(C)c4)c3n2)C1 [Compound 43, 1-[(3S)-3-({4-[(3-methyl-4-{[1,2,4]triazolo[1,5-a]pyridin-7-yloxy}phenyl)amino]pyrido[3,2-d]pyrimidin-6-yl}amino)pyrrolidin-1-yl]prop-2-en-1-one]	61.2 nM	5.11 nM	3.93 nM
CC#CC(=O)N1CC2CCC(C1)N2c1ccc2ncnc(Nc3ccc(Oc4ccn5ncnc5c4)c(C)c3)c2n1 [Compound 26, 1-(8-{4-[(3-methyl-4-{[1,2,4]triazolo[1,5-a]pyridin-7-yloxy}phenyl)amino]pyrido[3,2-d]pyrimidin-6-yl}-3,8-diazabicyclo[3.2.1]octan-3-yl)but-2-yn-1-one]	2350 nM	35.5 nM	6.16 nM
CC#CC(=O)N1CC2CC(C1)N2c1ccc2ncnc(Nc3ccc(Oc4ccn5ncnc5c4)c(C)c3)c2n1 [Compound 28, 1-(6-{4-[(3-methyl-4-{[1,2,4]triazolo[1,5-a]pyridin-7-yloxy}phenyl)amino]pyrido[3,2-d]pyrimidin-6-yl}-3,6-diazabicyclo[3.1.1]heptan-3-yl)but-2-yn-1-one]	> 10000 nM	444 nM	228 nM
C=CC(=O)N1CCN(c2ncc3ncnc(Nc4ccc(Oc5ccn6ncnc6c5)c(C)c4)c3n2)C[C@H]1C [Compound 56, 1-[(2R)-2-methyl-4-{8-[(3-methyl-4-{[1,2,4]triazolo[1,5-a]pyridin-7-yloxy}phenyl)amino]pyrimido[5,4-d][1,3]diazin-2-yl}piperazin-1-yl]prop-2-en-1-one]	1050 nM	14.8 nM	7.86 nM
C=CC(=O)N1CCC[C@@H](Nc2ccc3ncnc(Nc4ccc(Oc5ccn6ncnc6c5)c(C)c4)c3n2)C1 [Compound 42, 1-[(3R)-3-({4-[(3-methyl-4-{[1,2,4]triazolo[1,5-a]pyridin-7-yloxy}phenyl)amino]pyrido[3,2-d]pyrimidin-6-yl}amino)piperidin-1-yl]prop-2-en-1-one]	> 10000 nM	29.7 nM	219 nM

From patent publication US20250136595A1, “ACYLATED HETEROCYCLIC QUINAZOLINE DERIVATIVES AS INHIBITORS OF ERBB2” (Enliven Inc., priority 2022, published 2025)
